# Reference: patent US11771779B2, “Non-metallic magnetic resonance contrast agent” (HADASIT MEDICAL RESEARCH SERVICES & DEVELOPMENT LIMITED, priority 2018, dated 2023)
# Like-named read-outs stand apart in the source and are kept apart here.
# Experiments:
# [1] = mice; cited from earlier work
# [2] = rats; cited from earlier work
# [3] = dogs; up to 120 mg/kg daily i.v. for 28 days; cited from earlier work
# [4] = Estimated ^15N T1 (FIG. 1); details: same order of magnitude as [^15N,D9]choline, called a speculation
# Description: FIG. 1 ^15N T1s of selected molecules in water (H2O) and D2O measured at 5.8 T; (a) denotes Na^15NO3; (b) denotes solid-state polarization in D2O and dissolution in D2O.; (c) denotes solid-state polarization in D2O and dissolution in H2O.; In this case, during the decay in solution the nitrogen positions are fully protonated as confirmed by the respective split pattern of the signal (not shown); a, b, and c—determined experimentally; (d) denotes estimation.
# [5] = previous results; cited from earlier work
# [6] = Protocol: The small amounts of hyperpolarized solution were added to the blood sample at 0, 3, 6, 7.25, and 9.17 min from arrival of the solution to the collection tube.
# [7] = remark: listed apart in the source
# Protocol: (§1) ^15N-NMR spectroscopy was performed in a 5.8T NMR spectrometer (RS2D, Mundolsheim, France), using a 10 mm broad-band NMR probe. The chemical shift scale of the spectra presented herein was calibrated based on a separate measurement of a [^15N2]urea standard sample (4M in H2O:D2O 80:20), carried out prior to hyperpolarized ^15N acquisitions, calibrating the [^15N2]urea signal to −306 ppm (relative to nitromethane). For enhancement factor calculation, the spectra were collected with a high flip angle of […] and a repetition time of 2 s. For T1 calculation, the spectra were acquired with a low flip angle of […] and a longer repetition time of 5-10 s.
# The absolute enhancement factor was determined by comparing the maximal SNR of the magnitude signal multiplied by the linewidth at half-height obtained under hyperpolarized conditions to the intensity of the thermal equilibrium signal of the same sample (analyzed in the same way). The spectrum at thermal equilibrium was acquired with the same nutation angle under fully relaxed conditions. The same spectral acquisition parameters (spectral width, number of points, receiver gain) and processing parameters (apodization, zero-filling) were used in the analysis of both spectra and the thermal equilibrium signal was corrected for the number of scans.
# in the same spectrometer used to record the hyperpolarized signal (5.8T), as described in the Methods section, and then projected to the expected enhancement factors at a common clinical scanner at 1.5T. Enhancement factors were calculated with reference to a spectrum of the same sample.
# [8] = remark: listed apart in the source
# Protocol: Then, 4.59 mL saline and 0.66 mL of D2O were added to this mixture. This solution was transferred to an NMR tube and scanned for 5 days. ^15N fully-relaxed spectra were recorded in blocks of about 4 h, whereas each block consisted of 720 averages with a 30 flip angle and a repetition time of 20 s.
# (§2) In the next step, this solution was divided into 2 samples, in the following manner: 3 mL of this solution were combined with 0.75 mL of human saliva and the combined solution was scanned for 5 days. The rest of the solution (without human saliva) was kept outside the magnet at room temperature.
# [9] = test system: breast tumor bearing mouse; details: 50 mM solution injected
# [10] = remark: listed apart in the source
# Protocol: For this reason it was important to determine also the potential conversion to hyperpolarized [^15N]nitrite in human saliva.
# To test for the presence of [^15N]nitrite in this saline-saliva sample after the hyperpolarized state had decayed, the same sample was scanned at thermal equilibrium as well. The sample was scanned for 20 h, at room temperature.
# as §2
# [11] = for T1 in the 1st min of hyperpolarization decay: 0-60 s; for T1 in the 2nd min of hyperpolarization decay: 65-120 s
# Description: The dissolution process is detailed in the results section. […] Unless otherwise stated, the dissolved hyperpolarized solution was directly injected to a screw cup 10 mm NMR tube in a 5.8T NMR spectrometer via a PTFE line of about 2.4 m length with 3 s of He(g) chase. This line was wrapped with a heating tape (MRC, Holon, Israel) that enabled control over the temperature of the dissolution medium arriving to the NMR tube directly or to a collection tube in the fringe field of the spectrometer. ^15N-Nuclear Magnetic Resonance (NMR) spectra were continuously recorded immediately at the start of the dissolution process. […] In the experiments in body fluids and in experiments in which the hyperpolarized solution was first cooled to temperatures below room temperature, the dissolution media was first collected in a conical tube placed in the spectrometer's fringe field, and then was injected by syringe via a PEEK line to the NMR tube that was placed in the magnet.
# For heating this hyperpolarized solution prior to arrival to the NMR tube, the PTFE line leading the hyperpolarized solution out of the spin polarization device was wrapped with a heating tape connected to a temperature controller (MRC, Holon, Israel). In this way, hyperpolarized solutions at temperatures higher than 26° C. could be obtained. For cooling the hyperpolarized solution, the heating tape was not turned on and the dissolution medium was mixed with 0 to 4 mL of D2O at 2° C. in a collection tube placed in ice-water bath in the fringe field of the magnet, prior to injection.
# as §1
# The temperature in the NMR tube was continuously monitored using an NMR compatible temperature probe (Osensa, Burnaby, BC, Canada).
# Determination of the T1 of the hyperpolarized sites was performed by curve fitting of the signal decay to the following equation: S(t)=S0·e^−t/T^1·(cos θ)^t/TR, in which TR, the time between excitations, and θ, the nutation angle of excitation, are known. Curve fitting was performed using Matlab (Mathworks, Natick, Mass., USA).
smiles,measurement,setting,value
"C[N+](C)(C)CCOP(=O)([O-])OC[C@H](O)CO [GPC, glycerophosphocholine]",safe dose for an intravenous injection,[1],521 mg/kg
same,safe dose for an intravenous injection,[2],781 mg/kg
same,effects of daily intravenous injection,[3],only mild and reversible mood changes and no mortality
"[2H]C([2H])([2H])[15N+](CCOP(=O)([O-])OCC(O)CO)(C([2H])([2H])[2H])C([2H])([2H])[2H] (stereo not drawn) [[^15N,D9]GPC, [^15N,D9]glycerophosphocholine]",^15N T1 (estimated),[4],about 6 min
"[2H]C([2H])([2H])[15N+](CCO)(C([2H])([2H])[2H])C([2H])([2H])[2H] [[^15N,D9]choline]",^15N T1,[5],about 6 min
"O=[15N+]([O-])[O-].[Na+] [[^15N]nitrate, sodium [^15N]nitrate]",T1 in the 1st min of hyperpolarization decay,"[6]; Blood (n = 3), 0-60 s",27 ± 0.4
same,T1 in the 2nd min of hyperpolarization decay,"[6]; Blood (n = 3), 65-120 s",48 ± 1
same,increase of T1 in 2nd min versus 1st min,[6]; blood,78%
same,T1 in blood,"[6]; decay 1 of consecutive injections, error = 95% CI of fit",29 ± 2 s
same,T1 in blood,"[6]; decay 2 of consecutive injections, error = 95% CI of fit",30 ± 3 s
same,T1,"[6]; saline/whole human blood mixture (4 mL + 10 mL), 25 mM, 32-36° C., error = 95% CI of fit",29 ± 1 s
same,T1 upon mixing with whole blood,[6]; three measurements in two different blood samples,29 ± 1 s
same,^15N polarization,"[7]; corresponds to enhancement factor 5,298",1%
same,enhancement factor extrapolated to clinical MRI field of 1.5T,"[7]; extrapolated from 5,298 at 5.8 T","about 20,500"
same,maximal enhancement factor,"[7]; first signal in solution, 5.8 T, 2.5 h polarization at 1.5-1.6 K","5,298"
same,percent polarization of the ^15N,"[7]; physiological saline, HP vs TE spectra FIG. 3C/3D, 30° nutation angle",0.6%
same,signals in saline solution,"[8]; 22 mM with glucose 2.7 mM in saline, scanned 5 days, room temperature, FIG. 5A",Only the [^15N]nitrate signal appears in the spectrum
same,conversion to [^15N]nitrite in saline without saliva,"[8]; additional 5 days scan started after 14 days at room temperature, FIG. 5C",no conversion to [^15N]nitrite was observed
same,stable in saline solution,[8]; room temperature,at least 19 days
same,mouse vascular system in ^15N MR image,[9],enhanced in the MR image
same,tumor tissue in ^15N MR image,[9],enhanced in the MR image
same,conversion rate of nitrate to nitrite,[10],about 3.8 mole per day per 0.75 mL of saliva
same,signals in saline-saliva sample,[10],about equal signals of [^15N]nitrate and [^15N]nitrite
same,T1 in the 1st min of hyperpolarization decay,"[10]; Saline + saliva (n = 1), 0-60 s",116
same,dependence of T1 on temperature,[11]; 34-50° C.,does not change
same,increase of T1 in 2nd min versus 1st min,[11]; D2O,43%
same,T1 in the 1st min of hyperpolarization decay,[11]; D2O (n = 4),81 ± 20
same,T1 in the 2nd min of hyperpolarization decay,[11]; D2O (n = 4),116 ± 7
same,T1 in the 1st min of hyperpolarization decay,[11]; H2O (n = 2),99 ± 3
same,T1 in the 2nd min of hyperpolarization decay,[11]; H2O (n = 2),99 ± 5
